Legend:
[1] = test system: Myoglobin (Mb) from equine skeletal muscle; assay: Deoxy-myoglobin (Mb) carbonylation assay, CO release; type: biochemical; conditions: after 15 minutes of incubation with deoxy-Mb, PBS pH 7.4
Description: The CO donation capacity of Compound 1 by a deoxy-myoglobin (Mb) carbonylation assay was then evaluated (see, e.g., Clark et al., Am J Pathol (1992) 140:325-336).
The Mb assay was performed as described in Clark et al., Circ. Res. (2003) 93:2-8. A stock solution of Myoglobin (Mb) from equine skeletal muscle was prepared by dissolving the protein in PBS7.4. From this solution aliquots were taken to a cuvette (final concentration between ca. 60 μM) and Na2S2O4 in PBS, pH 7.4 (10 mg/mL solution; 0.1% final concentration) was added to convert met-Mb into deoxy-Mb. The reactions were done by mixing in the same cuvette and by this order, the Mb stock solution, the Na2S2O4 solution, a calculated amount of a solution of Compound I and adding PBS to obtain the desired final volume. […] Two controls were done in duplicate, the negative control (0% CO-Mb), a deoxy-Mb solution and the positive control (100% CO-Mb), obtained by bubbling pure CO gas into the deoxy-Mb solution for 10-15 min. The experimental spectrum was fitted as a weighted sum of the deoxy-Mb and the CO-Mb spectra. […] The absorbance spectrum was converted into a percentage of CO-Mb and the amount of CO liberated was calculated as molar equivalents of CO based on the initial concentration of Compound I (see FIG. 10).

P. berghei ANKA GFP [2] = type: in vivo, C57BL/6 mice; conditions: treated twice daily days 2-3; observed from about day 5 to day 8 of infection
Description: It has previously been shown that administration of CO by inhalation protects P. berghei ANKA infected C57BL/6 mice from developing ECM (see, e.g., Pamplona et al. Nat Med (2007) 13:703-710). The inventors questioned whether CO-RMs could mimic the protection conferred by CO inhalation in P. berghei ANKA infection. To this end, a known ruthenium CORM, Ru(CO)3Cl2, also referred to herein as CORM-2, was tested on different schedules of treatment and doses in P. berghei ANKA infected C57BL/6 mice (data not shown).
Red blood cells infected with green fluorescent protein (GFP)-transgenic P. berghei ANKA and P. berghei ANKA was used to infect mice (see, e.g., Franke-Fayard et al. Mol Biochem Parasitol (2004) 137:23-33). Cryopreserved parasites were passed once through C57BL/6 or DBA-2 mice before being used to infect experimental animals. C57BL/6 or DBA-2, 6- to 8-wk-old mice (sex matched in each experiment) were infected by intra-peritoneal (i.p.) injection of 10^6 infected RBCs. The infected mice were monitored daily for clinical symptoms of experimental cerebral malaria (ECM) including hemi- or paraplegia, head deviation, tendency to roll over on stimulation, ataxia and convulsions, or ALI, including dyspnea. Mice showing severe signs of ECM at day 5, 6 or 7 post-infection (p.i.) and ALI between days 7 and 9 were sacrificed. Parasitemia was assessed by flow cytometry for mice infected with GFP-expressing P. berghei ANKA, using tail blood, as previously described (see, e.g., Pamplona et al., Nat Med (2007) 13:703-710). Mean parasitemia is expressed as percentage of infected red blood cells. For mice infected with non-GFP P. berghei parasitemia was assessed daily by microscopic counting of Giemsa-stained thin blood smears. Mean parasitemia is expressed as percentage of infected red blood cells. Survival is expressed as percentage.
(§1) In order to evaluate the clinical presentation of experimental cerebral malaria, a classification was used in clinical stages from 0 to 4 (see, e.g., Bienvenu et al., Acta Trop (2008) 106:104-8; Franklin et al., Proc Natl Acad Sci USA (2011) 108:3689-94). Briefly, stage 0 indicates no detectable clinical symptoms, stage 1, ruffled fur; stage 2, ruffled fur and unbalancing; stage 3, limb paralysis and respiratory distress and stage 4, convulsions, coma or death. The mice were clinically classified before and after the treatment to evaluate the clinical recovery.
(§2) CORM-2 (Sigma-Aldrich) and Compound 2 were solubilized using 10% dimethyl sulfoxide (DMSO; Sigma-Aldrich) in PBS. CORM-3 and Compound 1 were solubilized in PBS (lx). CORM-2 solution (20 mg/kg of body weight) was administered intravenously (i.v.) according to the chosen schedules. […] As vehicle control, we used a solution of 10% DMSO in PBS administered i.v. The concentrations of CORM-2 used in the present study were based on previous reports (see, e.g., Chen et al. Am. J. Pathol. (2009) 175:422-429; Sun et al., World. J. Gastroenterol. (2008) 14:547-553). Artesunate is presented as a powder of artesunic acid. Artesunate (AS) solution was prepared by dissolving 60 mg of anhydrous artesunic acid in 1 ml of sodium bicarbonate (5%) to form sodium artesunate and then diluted in 5 ml of NaCl (0.9%). An AS solution (i.p.) was administered at 40 mg/Kg/day, as described previously (see, e.g., Bienvenu, Acta Trop (2008) 106:104-108). The AS treatment was started when the infected non-treated mice presented the clinical stage 1 for experimental cerebral malaria.

P. berghei ANKA GFP [3] = assay: Adjunctive/adjuvant therapy with artesunate after onset of ECM; type: in vivo, C57BL/6 mice; conditions: during administration of AS, between days 5 and 6
Description: Thus, the inventors decided to test Compound 1 as an adjunctive and adjuvant therapy during the acute phase of ECM. […] Therefore, the inventors assessed the combination of Compound 1 and AS on parasite clearance and clinical recovery from ECM. Two AS and Compound 1 combinations were tested: (i) Adjunctive therapy: AS and Compound 1 were administered concomitantly for 2 days after the onset of CM followed by a 3-day treatment with Compound 1 alone, or (ii) Adjuvant therapy: AS was administered on the first 2 days after CM onset followed by Compound 1 administration for 3 more days.
as §1, §2

P. berghei ANKA = assay: Parasite r18S (pRBC accumulation) in brain by qRT-PCR; type: in vivo, C57BL/6 mice
Description: Mice were sacrificed, when infected control mice presented signs of ECM, and perfused intracardially with PBS to remove circulating RBC and leukocytes from the organs. RNA was isolated from brains, livers and lungs using Trizol Reagent (Invitrogen, Life technologies), according to the manufacturer's recommendation. The synthesis of the first-strand cDNA from the RNA templates was carried out using the Transcriptor First Strand cDNA Synthesis Kit (Roche). RT-PCR reactions were performed in the presence of SYBER Green (SYBER Green PCR master mix, Applied Biosystems) on an ABI PRISM 7500Fast (Applied Biosystem). Oligonucleotides used for the specific amplification of genes include:
The relative changes in gene expression between experimental and control groups were calculated by the Pfaffl method using hprt as internal control gene. Statistical Analysis

C[SH]([C@@H]1OC(CO)[C@H](O)[C@H](O)C1O)[Ru]([Cl])([Cl])([CH]=O)([CH]=O)[CH]=O (stereo partly shown) [Compound 1, Tricarbonyldichloro(methylthiogalactopyranoside) Ru(II)]
CO transferred to Mb [1]: approximately 1 equivalent of CO | effect on parasitemia (P. berghei ANKA GFP [2]): small but significant arrest in parasitemia | interference with the anti-malarial action of AS (P. berghei ANKA GFP [3]): did not interfere with the anti-malarial action of AS in vivo | pRBC accumulation in the brain vs Compound 2-treated mice (P. berghei ANKA): significantly lower

Source: patent US9611286B2, “Ruthenium carbon monoxide releasing molecules and uses thereof” (Alfama, Inc., priority 2011, dated 2017)
